According to patent publication US20150141381A1, “TETRACYCLINE COMPOUNDS HAVING TARGET THERAPEUTIC ACTIVITIES” (Paratek Pharmaceuticals, Inc., priority 2001, published 2015):
Where two headings read alike, the source gives them in different places.

Key:
[1] = tested on: E. coli mL308 225; experiment: In Vitro Anti-Bacterial Activity Assay (MIC), gram negative; type: cell-based; details: Escherichia coli, ML308225, 18 h, read-out: Antibiotic Activity Gram − (MIC)
[2] = tested on: S. aureus RN450; experiment: In Vitro Anti-Bacterial Activity Assay (MIC), gram positive; type: cell-based; details: Staphylococcus aureus, RN450, 18 h, gram positive bacteria; read-out: Antibiotic Activity Gram + (MIC)

| Structure (SMILES) | MIC ([1]; gram negative bacteria) | MIC [2] | MIC [1] |
| --- | --- | --- | --- |
| COC(=O)c1ccc(O)c2c1C[C@H]1C[C@H]3[C@H](N(C)C)C(O)=C(C(N)=O)C(=O)[C@@]3(O)C(O)=C1C2=O | < 4 µg/mL | < 4 µg/mL | – |
| CN1CCC(N(C)c2ccc3c(c2O)C(=O)C2=C(O)[C@]4(O)C(=O)C(C(N)=O)=C(O)[C@@H](N(C)C)[C@@H]4C[C@@H]2C3)CC1 | > 4 µg/mL | > 4 µg/mL | – |
| CCCCN(c1ccc2c(c1O)C(=O)C1=C(O)[C@]3(O)C(=O)C(C(N)=O)=C(O)[C@@H](N(C)C)[C@@H]3[C@@H](O)[C@@H]1[C@H]2C)C1CCN(C)CC1 | > 4 µg/mL | < 4 µg/mL | – |
| CN(C)[C@@H]1C(O)=C(C(N)=O)C(=O)[C@@]2(O)C(O)=C3C(=O)c4c(O)ccc(C5CCOC5)c4C[C@H]3C[C@@H]12 (stereo partly shown) | < 4 µg/mL | < 4 µg/mL | – |
| CCc1cc(NCC(C)C)c(O)c2c1C[C@H]1C[C@H]3[C@H](N(C)C)C(O)=C(C(N)=O)C(=O)[C@@]3(O)C(O)=C1C2=O | < 4 µg/mL | < 4 µg/mL | – |
| CN(C)[C@@H]1C(O)=C(C(N)=O)C(=O)[C@@]2(O)C(O)=C3C(=O)c4c(O)ccc(C(=O)C(=O)N5CCOCC5)c4C[C@H]3C[C@@H]12 | > 4 µg/mL | < 4 µg/mL | – |
| CN(C)C(=O)c1ccc(O)c2c1C[C@H]1C[C@H]3[C@H](N(C)C)C(O)=C(C(N)=O)C(=O)[C@@]3(O)C(O)=C1C2=O | > 4 µg/mL | < 4 µg/mL | – |
| CN(C)c1cc(CNCc2cccn2C)c(O)c2c1C[C@H]1C[C@H]3[C@H](N(C)C)C(O)=C(C(N)=O)C(=O)[C@@]3(O)C(O)=C1C2=O | > 4 µg/mL | < 4 µg/mL | – |
| CC(C)NCc1cc(N(C)C)c2c(c1O)C(=O)C1=C(O)[C@]3(O)C(=O)C(C(N)=O)=C(O)[C@@H](N(C)C)[C@@H]3C[C@@H]1C2 | > 4 µg/mL | < 4 µg/mL | – |
| CCC(=O)Nc1ccc2c(c1O)C(=O)C1=C(O)[C@]3(O)C(=O)C(C(N)=O)=C(O)[C@@H](N(C)C)[C@@H]3C[C@@H]1C2 | < 4 µg/mL | < 4 µg/mL | – |
| C#CCOC(=O)Nc1ccc2c(c1O)C(=O)C1=C(O)[C@]3(O)C(=O)C(C(N)=O)=C(O)[C@@H](N(C)C)[C@@H]3C[C@@H]1C2 | < 4 µg/mL | < 4 µg/mL | – |
| CN(C)C(=O)CNc1cc(N(C)C)c2c(c1O)C(=O)C1=C(O)[C@]3(O)C(=O)C(C(N)=O)=C(O)[C@@H](N(C)C)[C@@H]3C[C@@H]1C2 | > 4 µg/mL | > 4 µg/mL | – |
| CN1CCC(Nc2ccc(O)c3c2C[C@H]2C[C@H]4[C@H](N(C)C)C(O)=C(C(N)=O)C(=O)[C@@]4(O)C(O)=C2C3=O)CC1 | > 4 µg/mL | < 4 µg/mL | – |
| CN(C)[C@@H]1C(O)=C(C(N)=O)C(=O)[C@@]2(O)C(O)=C3C(=O)c4c(ccc(N5CCCCC5)c4O)C[C@H]3C[C@@H]12 | > 4 µg/mL | > 4 µg/mL | – |
| CN(C)Cc1cc(N(C)C)c2c(c1O)C(=O)C1=C(O)[C@]3(O)C(=O)C(C(N)=O)=C(O)[C@@H](N(C)C)[C@@H]3C[C@@H]1C2 | > 4 µg/mL | < 4 µg/mL | – |
| CN1C=CC(Nc2cc(C3=COCC3)c3c(c2O)C(=O)C2=C(O)[C@]4(O)C(=O)C(C(N)=O)=C(O)[C@@H](N(C)C)[C@@H]4C[C@@H]2C3)CC1 (stereo partly shown) | > 4 µg/mL | < 4 µg/mL | – |
| C[C@H]1c2ccc(NC3CC(C)(C)NC(C)(C)C3)c(O)c2C(=O)C2=C(O)[C@]3(O)C(=O)C(C(N)=O)=C(O)[C@@H](N(C)C)[C@@H]3[C@@H](O)[C@@H]21 | > 4 µg/mL | < 4 µg/mL | – |
| CC(CF)NCc1cc(N(C)C)c2c(c1O)C(=O)C1=C(O)[C@]3(O)C(=O)C(C(N)=O)=C(O)[C@@H](N(C)C)[C@@H]3C[C@@H]1C2 (stereo partly shown) | – | < 4 µg/mL | > 4 µg/mL |

| Structure (SMILES) | MIC ([1]; gram negative bacteria) | MIC [2] | MIC [1] |
| --- | --- | --- | --- |
| CN(C)c1cc(CNC2CCCC2)c(O)c2c1C[C@H]1C[C@H]3[C@H](N(C)C)C(O)=C(C(N)=O)C(=O)[C@@]3(O)C(O)=C1C2=O | > 4 µg/mL | < 4 µg/mL | – |
| CC(CCO)NCc1cc(N(C)C)c2c(c1O)C(=O)C1=C(O)[C@]3(O)C(=O)C(C(N)=O)=C(O)[C@@H](N(C)C)[C@@H]3C[C@@H]1C2 (stereo partly shown) | > 4 µg/mL | < 4 µg/mL | – |
| CN(C)CCN(C)Cc1ccc(-c2cc(N(C)C)c3c(c2O)C(=O)C2=C(O)[C@]4(O)C(=O)C(C(N)=O)=C(O)[C@@H](N(C)C)[C@@H]4C[C@@H]2C3)[nH]1 | > 4 µg/mL | > 4 µg/mL | – |
| CCNCC(=O)NCc1cc(N(C)C)c2c(c1O)C(=O)C1=C(O)[C@]3(O)C(=O)C(C(N)=O)=C(O)[C@@H](N(C)C)[C@@H]3C[C@@H]1C2 | > 4 µg/mL | > 4 µg/mL | – |
| CN1CCC(NCc2cc(N(C)C)c3c(c2O)C(=O)C2=C(O)[C@]4(O)C(=O)C(C(N)=O)=C(O)[C@@H](N(C)C)[C@@H]4C[C@@H]2C3)CC1 | > 4 µg/mL | > 4 µg/mL | – |
| CN(C)c1cc(CNC(=O)C(Cc2ccccc2)N(C)C)c(O)c2c1C[C@H]1C[C@H]3[C@H](N(C)C)C(O)=C(C(N)=O)C(=O)[C@@]3(O)C(O)=C1C2=O (stereo partly shown) | > 4 µg/mL | < 4 µg/mL | – |
| CN(C)c1cc(CNCC2CCNCC2)c(O)c2c1C[C@H]1C[C@H]3[C@H](N(C)C)C(O)=C(C(N)=O)C(=O)[C@@]3(O)C(O)=C1C2=O | > 4 µg/mL | > 4 µg/mL | – |
| CN(C)c1cc(CNCC2CCOCC2)c(O)c2c1C[C@H]1C[C@H]3[C@H](N(C)C)C(O)=C(C(N)=O)C(=O)[C@@]3(O)C(O)=C1C2=O | > 4 µg/mL | < 4 µg/mL | – |
| CN(C)[C@@H]1C(O)=C(C(N)=O)C(=O)[C@@]2(O)C(O)=C3C(=O)c4c(O)ccc(C#N)c4C[C@H]3C[C@@H]12 | < 4 µg/mL | < 4 µg/mL | – |
| CN(C)[C@@H]1C(O)=C(C(N)=O)C(=O)[C@@]2(O)C(O)=C3C(=O)c4c(O)ccc(-c5ccc(CNC6CC6)o5)c4C[C@H]3C[C@@H]12 | < 4 µg/mL | < 4 µg/mL | – |
| COC(=O)C1CCN(Cc2ccc(-c3ccc(O)c4c3C[C@H]3C[C@H]5[C@H](N(C)C)C(O)=C(C(N)=O)C(=O)[C@@]5(O)C(O)=C3C4=O)cc2)CC1 | < 4 µg/mL | < 4 µg/mL | – |
| CN(C)c1cc(CNCc2cc[n+]([O-])cc2)c(O)c2c1C[C@H]1C[C@H]3[C@H](N(C)C)C(O)=C(C(N)=O)C(=O)[C@@]3(O)C(O)=C1C2=O | > 4 µg/mL | > 4 µg/mL | – |
| CN(C)c1cc(CN(Cc2ccn[nH]2)Cc2ccn[nH]2)c(O)c2c1C[C@H]1C[C@H]3[C@H](N(C)C)C(O)=C(C(N)=O)C(=O)[C@@]3(O)C(O)=C1C2=O | > 4 µg/mL | > 4 µg/mL | – |
| CN(C)c1cc(CN2CCCCC2)c(O)c2c1C[C@H]1C[C@H]3[C@H](N(C)C)C(O)=C(C(N)=O)C(=O)[C@@]3(O)C(O)=C1C2=O | < 4 µg/mL | < 4 µg/mL | – |
| CN(C)c1cc(CNC(=O)C2CCCN2)c(O)c2c1C[C@H]1C[C@H]3[C@H](N(C)C)C(O)=C(C(N)=O)C(=O)[C@@]3(O)C(O)=C1C2=O (stereo partly shown) | > 4 µg/mL | > 4 µg/mL | – |
| CN(C)c1cc(CNC(=O)C2(N)CC2)c(O)c2c1C[C@H]1C[C@H]3[C@H](N(C)C)C(O)=C(C(N)=O)C(=O)[C@@]3(O)C(O)=C1C2=O | > 4 µg/mL | < 4 µg/mL | – |
| CN(C)CC(=O)NCc1cc(N(C)C)c2c(c1O)C(=O)C1=C(O)[C@]3(O)C(=O)C(C(N)=O)=C(O)[C@@H](N(C)C)[C@@H]3C[C@@H]1C2 | > 4 µg/mL | < 4 µg/mL | – |
